One series has as its system A549. As to the kind of experiment: Cellular activity A549. Particulars: Homo sapiens. The class given is cell-based. Summed up: (§1)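 Cultured cells were exposed to compounds at various concentrations for roughly one hour to one week, enough to induce cell death or inhibit migration. Viable cells remaining after treatment were then counted.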
For series [1] the following is noted: from NC(=O)[C@H]1[C@@H]2CC(CNC(=O)Nc3cccc(N)c3)[C@@H](C2)[C@H]1Nc1nc(Cl)ncc1F; snar bond.
The subject of another series is MiaPaca2. The experiment in a line: Cellular activity MiaPaca2. In kind it is cell-based. Particulars: Homo sapiens, MIA PaCa-2. The method in brief: as §1
The target of series [2] is kinases (not incl. Aurora). As to the kind of experiment: Kinase inhibition profile (not incl. Aurora). The class given is biochemical. Particulars: at 1 μM; hit means >79% inhibition. The procedure:
(§2) The Aurora and other kinase assays described here were performed on two Caliper Life Sciences systems, the LC3000 and the Desktop Profiler. These provide data on enzyme activity via measurement of the relative amounts of phosphorylated or unphosphorylated fluorescently labelled substrate peptide at the end of an enzymatic reaction. These different states of peptide are resolved by applying a potential difference across the sample. The presence of a charged phosphate group on the product (as opposed to the substrate) causes a different peptide mobility between the two peptides. This is visualized by excitation of a fluorescent label on the substrate and product peptides and represented as peaks within the analysis software.
The Desktop Profiler utilizes the same principal as the LC 3000 for calculating percentage conversion of a substrate to product. Caliper Life Sciences provided proprietary flash frozen pre-made 384 well plates containing selected kinases. Each column in the 384 well plate contained a particular selected kinase. A second plate, the ‘substrate plate’ contained a mix of fluorescently labeled peptide substrate and ATP. These were arranged in columns so that transfer for substrate plate to enzyme plate provided the correct enzyme with the correct substrate/ATP concentration.
Compounds were added to a thawed enzyme plate in the desired format, in single concentrations. Reactions were initiated by transfer of the ubstrate/ATP mix from the substrate plate. The enzyme plate was incubated for 90 mins at 25 °C. The reaction was stopped by addition of […] of Stop Buffer (100 mM HEPES pH 7.5, 0.015% Brij-35, 10 mM EDTA (Sigma, E7889)).
Plates were read in a manner identical to that of the LC3000, and the ratio between substrate and product peaks provided the activity of the enzyme in that well. This was best represented by a plate heat map which colors each well by percent inhibition as compared to positive and negative controls (no inhibitors and no ATP respectively).

The target in a further series is Aurora B (Homo sapiens, UniProt Q96GD4). The experiment in a line: Aurora B enzyme assay (Caliper). In kind it is biochemical. The method in brief:
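Kinase activity was measured by microfluidic mobility-shift separation of phosphorylated and unphosphorylated fluorescently labelled substrate peptide at the end of the enzymatic reaction. Product and substrate were resolved by their charge difference and detected by fluorescence.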

The target in the next series is T1, Aurora A (Homo sapiens, UniProt O14965).
T1 construct: N-terminal GST fusion with full length Aurora A (1-403 amino acids); purchased Carna Biosciences 05-101
T1 sequence (O14965 1-403): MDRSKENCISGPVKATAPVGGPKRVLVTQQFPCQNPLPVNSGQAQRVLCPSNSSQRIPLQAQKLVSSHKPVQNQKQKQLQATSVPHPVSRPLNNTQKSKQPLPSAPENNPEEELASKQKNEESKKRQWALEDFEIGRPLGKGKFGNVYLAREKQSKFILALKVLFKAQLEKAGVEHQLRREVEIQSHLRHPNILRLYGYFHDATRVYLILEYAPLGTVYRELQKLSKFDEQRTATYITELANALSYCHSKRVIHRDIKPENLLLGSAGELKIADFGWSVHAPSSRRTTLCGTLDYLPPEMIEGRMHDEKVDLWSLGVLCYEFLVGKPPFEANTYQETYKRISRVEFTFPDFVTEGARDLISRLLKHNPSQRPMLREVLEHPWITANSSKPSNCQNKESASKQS
The experiment in a line: Aurora A enzyme assay (Caliper LC3000 mobility shift). In kind it is biochemical. Summed up:
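Full-length N-terminal GST-Aurora A (0.067 ng/µl) with 15 µM ATP and 1 µM FITC-LRRASLG peptide in 100 mM HEPES pH 7.5, 1 mM MgCl2, 1 mM DTT, 0.015% Brij-35, 90 min at 25 °C, EDTA-stopped. Off-chip mobility shift measured percent substrate conversion; IC50 from sigmoidal dose-response fit.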

A further series deals with T2, Tie2(h) (Homo sapiens, UniProt Q02763).
T2 construct: purchased Caliper Life Sciences
The experiment in a line: Inhibition of other kinases IC50 (Table 2). In kind it is biochemical. The procedure: as §2

Another series addresses T3, Pyk2(h) (Homo sapiens, UniProt Q14289).
T3 construct: purchased Caliper Life Sciences
As to the kind of experiment: Inhibition of other kinases IC50 (Table 2). The class given is biochemical. The procedure: as §2

A further series addresses T4, FAK(h) (Homo sapiens, UniProt Q05397).
T4 construct: purchased Caliper Life Sciences
The experiment in a line: Inhibition of other kinases IC50 (Table 2). The class given is biochemical. The procedure:
as §2

The next series deals with T5, Ret(h) (Homo sapiens, UniProt P07949).
T5 construct: purchased Caliper Life Sciences
The experiment in a line: Inhibition of other kinases IC50 (Table 2). In kind it is biochemical. The procedure:
as §2

A further series has as its target T6, IRAK4(h) (Homo sapiens, UniProt Q9NWZ3).
T6 construct: purchased Caliper Life Sciences
T6 sequence (Q9NWZ3 1-460): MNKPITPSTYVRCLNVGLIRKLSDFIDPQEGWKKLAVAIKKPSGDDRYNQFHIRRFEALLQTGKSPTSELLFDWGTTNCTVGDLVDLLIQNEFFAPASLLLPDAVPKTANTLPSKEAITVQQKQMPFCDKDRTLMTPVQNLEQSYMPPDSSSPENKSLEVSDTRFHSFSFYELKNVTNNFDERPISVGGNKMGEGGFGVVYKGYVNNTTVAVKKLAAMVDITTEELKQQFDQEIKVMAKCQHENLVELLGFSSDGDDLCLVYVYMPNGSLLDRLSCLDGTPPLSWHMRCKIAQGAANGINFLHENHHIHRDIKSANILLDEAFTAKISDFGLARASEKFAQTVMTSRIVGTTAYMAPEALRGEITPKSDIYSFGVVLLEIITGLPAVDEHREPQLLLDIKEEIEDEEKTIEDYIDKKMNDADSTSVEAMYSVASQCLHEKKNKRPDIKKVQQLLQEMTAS
The experiment in a line: Inhibition of other kinases IC50 (Table 2). In kind it is biochemical. The procedure:
as §2

The source of these data is patent US8815872B2, “Macrocyclics pyrimidines as aurora kinase inhibitors” (Merck Patent GmbH, priority 2008, dated 2014).

T5 sequence (P07949 29-1114): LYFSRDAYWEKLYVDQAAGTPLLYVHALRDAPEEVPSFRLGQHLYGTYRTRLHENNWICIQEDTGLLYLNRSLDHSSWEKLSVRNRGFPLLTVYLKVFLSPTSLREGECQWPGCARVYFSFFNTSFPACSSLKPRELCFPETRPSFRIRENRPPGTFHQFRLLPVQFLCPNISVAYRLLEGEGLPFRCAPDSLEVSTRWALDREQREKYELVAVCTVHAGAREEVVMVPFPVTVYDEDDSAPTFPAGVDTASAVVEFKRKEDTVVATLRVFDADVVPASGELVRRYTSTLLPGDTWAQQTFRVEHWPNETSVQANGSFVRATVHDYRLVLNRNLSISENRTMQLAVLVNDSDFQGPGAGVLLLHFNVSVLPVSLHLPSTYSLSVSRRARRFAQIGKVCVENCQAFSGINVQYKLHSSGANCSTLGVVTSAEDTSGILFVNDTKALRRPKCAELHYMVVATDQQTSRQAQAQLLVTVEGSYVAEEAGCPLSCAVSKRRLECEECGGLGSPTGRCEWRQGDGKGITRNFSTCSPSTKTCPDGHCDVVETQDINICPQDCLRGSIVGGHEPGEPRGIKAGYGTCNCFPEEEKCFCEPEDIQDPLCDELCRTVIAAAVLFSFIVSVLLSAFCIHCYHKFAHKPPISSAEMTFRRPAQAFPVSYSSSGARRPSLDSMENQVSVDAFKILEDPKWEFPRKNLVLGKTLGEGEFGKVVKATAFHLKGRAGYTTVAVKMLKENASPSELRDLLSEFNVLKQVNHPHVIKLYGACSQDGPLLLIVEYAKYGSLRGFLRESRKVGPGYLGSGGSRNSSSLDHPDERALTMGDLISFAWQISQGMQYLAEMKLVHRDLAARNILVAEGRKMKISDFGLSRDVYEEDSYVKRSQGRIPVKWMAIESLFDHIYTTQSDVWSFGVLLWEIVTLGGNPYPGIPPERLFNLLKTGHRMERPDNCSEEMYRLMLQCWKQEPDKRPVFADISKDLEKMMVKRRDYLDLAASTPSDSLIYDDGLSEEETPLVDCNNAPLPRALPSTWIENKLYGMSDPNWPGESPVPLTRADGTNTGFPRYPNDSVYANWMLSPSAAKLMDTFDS
T2 sequence (Q02763 23-1124): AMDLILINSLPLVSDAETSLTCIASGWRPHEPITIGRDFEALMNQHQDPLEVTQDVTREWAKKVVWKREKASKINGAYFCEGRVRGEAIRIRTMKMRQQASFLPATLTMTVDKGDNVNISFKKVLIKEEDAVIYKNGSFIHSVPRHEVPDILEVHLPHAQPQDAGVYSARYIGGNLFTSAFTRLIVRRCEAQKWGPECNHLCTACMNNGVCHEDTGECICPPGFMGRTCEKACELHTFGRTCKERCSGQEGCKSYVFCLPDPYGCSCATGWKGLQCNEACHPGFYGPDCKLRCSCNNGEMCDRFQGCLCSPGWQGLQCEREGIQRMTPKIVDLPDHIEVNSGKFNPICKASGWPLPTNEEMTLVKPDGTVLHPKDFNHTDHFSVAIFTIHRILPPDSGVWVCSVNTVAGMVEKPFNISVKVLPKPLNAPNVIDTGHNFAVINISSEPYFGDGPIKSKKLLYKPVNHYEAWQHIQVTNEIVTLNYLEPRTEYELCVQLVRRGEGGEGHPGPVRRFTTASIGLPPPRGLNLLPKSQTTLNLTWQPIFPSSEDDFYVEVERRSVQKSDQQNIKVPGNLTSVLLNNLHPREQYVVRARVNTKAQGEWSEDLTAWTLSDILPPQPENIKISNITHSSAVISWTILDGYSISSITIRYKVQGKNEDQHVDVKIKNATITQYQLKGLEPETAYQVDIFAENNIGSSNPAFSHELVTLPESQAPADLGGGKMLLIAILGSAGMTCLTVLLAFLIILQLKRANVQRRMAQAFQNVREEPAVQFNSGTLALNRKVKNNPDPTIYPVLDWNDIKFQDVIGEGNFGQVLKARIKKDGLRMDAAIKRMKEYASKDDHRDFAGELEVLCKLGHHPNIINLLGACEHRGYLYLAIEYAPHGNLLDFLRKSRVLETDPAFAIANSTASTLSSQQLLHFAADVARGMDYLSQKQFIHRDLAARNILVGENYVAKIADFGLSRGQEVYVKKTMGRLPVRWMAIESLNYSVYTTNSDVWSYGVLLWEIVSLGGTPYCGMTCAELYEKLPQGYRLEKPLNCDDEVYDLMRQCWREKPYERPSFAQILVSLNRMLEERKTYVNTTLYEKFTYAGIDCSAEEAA
T3 sequence (Q14289 whole entry): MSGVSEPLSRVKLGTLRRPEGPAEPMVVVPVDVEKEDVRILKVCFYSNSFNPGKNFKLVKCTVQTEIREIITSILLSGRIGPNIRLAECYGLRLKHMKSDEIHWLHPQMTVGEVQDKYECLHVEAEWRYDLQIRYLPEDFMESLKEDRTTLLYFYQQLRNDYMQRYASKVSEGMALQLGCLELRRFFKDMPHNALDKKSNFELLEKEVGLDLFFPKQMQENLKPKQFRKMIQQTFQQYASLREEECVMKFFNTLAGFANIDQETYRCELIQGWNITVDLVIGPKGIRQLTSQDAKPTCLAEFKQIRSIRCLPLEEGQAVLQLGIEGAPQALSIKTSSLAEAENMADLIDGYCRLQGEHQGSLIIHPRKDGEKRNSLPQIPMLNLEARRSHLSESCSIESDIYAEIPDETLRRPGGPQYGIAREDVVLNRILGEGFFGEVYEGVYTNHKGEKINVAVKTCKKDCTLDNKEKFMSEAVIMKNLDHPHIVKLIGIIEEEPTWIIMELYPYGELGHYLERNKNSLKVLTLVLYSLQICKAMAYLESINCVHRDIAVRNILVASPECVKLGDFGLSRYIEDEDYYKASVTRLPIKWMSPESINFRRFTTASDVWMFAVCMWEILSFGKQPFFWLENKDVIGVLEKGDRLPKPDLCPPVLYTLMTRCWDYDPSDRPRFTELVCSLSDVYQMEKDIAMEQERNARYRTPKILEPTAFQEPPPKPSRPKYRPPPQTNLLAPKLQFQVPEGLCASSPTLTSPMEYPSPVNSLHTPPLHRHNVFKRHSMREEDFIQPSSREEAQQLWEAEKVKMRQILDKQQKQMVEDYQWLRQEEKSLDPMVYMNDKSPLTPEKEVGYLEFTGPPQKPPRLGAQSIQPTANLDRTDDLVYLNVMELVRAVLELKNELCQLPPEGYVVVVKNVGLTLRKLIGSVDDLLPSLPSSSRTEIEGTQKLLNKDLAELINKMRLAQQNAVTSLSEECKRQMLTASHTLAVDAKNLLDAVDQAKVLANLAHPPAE
Chain of Aurora B (Q96GD4 whole entry): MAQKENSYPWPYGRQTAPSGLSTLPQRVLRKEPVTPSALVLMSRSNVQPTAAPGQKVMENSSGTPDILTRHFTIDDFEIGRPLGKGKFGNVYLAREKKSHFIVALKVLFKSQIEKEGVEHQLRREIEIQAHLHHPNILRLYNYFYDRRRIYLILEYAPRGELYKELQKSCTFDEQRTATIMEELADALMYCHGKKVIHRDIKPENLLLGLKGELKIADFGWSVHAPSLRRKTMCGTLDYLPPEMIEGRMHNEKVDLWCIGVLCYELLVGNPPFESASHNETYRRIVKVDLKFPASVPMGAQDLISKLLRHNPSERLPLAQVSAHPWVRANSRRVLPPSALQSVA
T4 sequence (Q05397 whole entry): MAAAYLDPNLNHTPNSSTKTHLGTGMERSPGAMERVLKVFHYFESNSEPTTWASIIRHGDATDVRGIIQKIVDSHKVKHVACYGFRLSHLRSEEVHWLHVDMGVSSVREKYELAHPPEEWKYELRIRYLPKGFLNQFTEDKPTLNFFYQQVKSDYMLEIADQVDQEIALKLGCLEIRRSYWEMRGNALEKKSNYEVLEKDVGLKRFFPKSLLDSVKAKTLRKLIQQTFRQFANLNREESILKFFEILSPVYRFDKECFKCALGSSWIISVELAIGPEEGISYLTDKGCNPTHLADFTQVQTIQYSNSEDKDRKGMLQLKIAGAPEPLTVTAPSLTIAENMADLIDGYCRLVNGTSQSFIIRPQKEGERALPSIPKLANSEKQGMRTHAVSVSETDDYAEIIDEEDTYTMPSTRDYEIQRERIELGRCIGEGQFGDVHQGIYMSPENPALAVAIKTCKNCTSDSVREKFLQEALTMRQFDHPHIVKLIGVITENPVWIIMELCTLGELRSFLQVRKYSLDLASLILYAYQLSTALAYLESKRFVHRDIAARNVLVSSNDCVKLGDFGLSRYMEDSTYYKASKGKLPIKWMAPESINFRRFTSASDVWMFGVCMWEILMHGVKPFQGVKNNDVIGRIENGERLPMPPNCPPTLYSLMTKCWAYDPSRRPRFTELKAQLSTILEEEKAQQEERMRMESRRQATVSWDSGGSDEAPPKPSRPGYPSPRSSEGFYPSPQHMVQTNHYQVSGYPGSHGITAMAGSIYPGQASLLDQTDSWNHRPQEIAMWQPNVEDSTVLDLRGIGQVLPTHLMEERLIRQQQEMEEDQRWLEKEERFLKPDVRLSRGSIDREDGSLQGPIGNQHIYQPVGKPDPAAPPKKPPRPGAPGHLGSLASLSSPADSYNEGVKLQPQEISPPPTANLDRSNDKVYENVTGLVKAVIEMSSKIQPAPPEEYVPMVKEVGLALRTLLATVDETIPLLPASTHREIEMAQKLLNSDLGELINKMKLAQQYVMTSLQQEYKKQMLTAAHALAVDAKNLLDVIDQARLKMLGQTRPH

With `NC(=O)[C@H]1[C@@H]2CC3CNC(=O)Nc4cccc(c4)Nc4ncc(F)c(n4)N[C@@H]1[C@@H]3C2` (some centres unmarked), the IC50 (commonly the midpoint of a concentration-inhibition curve) is over 6250 nM with A549, 1000 to 6250 nM with MiaPaca2, 101 to 1000 nM against Aurora B and 101 to 1000 nM at Aurora A. In series [1], this molecule came in with a ring closure, yield of all isomers of 15.1%. Further, the “Kinase Inhibition Profile (not incl. Aurora) # kinases hit/# kinases tested” value in [2] is 1/76 at 1 μM.
As to `NC(=O)[C@H]1[C@H]2C[C@H]3[C@H]1Nc1nc(ncc1F)Nc1cccc(c1)CCS[C@@H]3C2` [Example 18], the IC50 at Tie2(h) is 1000 to 6250 nM; against Pyk2(h) it was 101 to 1000 nM; against FAK(h) it was 101 to 1000 nM; at Ret(h) it was 1000 to 6250 nM; at IRAK4(h), 1 to 100 nM.
